For nine compounds, Ki results are on record in BindingDB's records for PubMed 2894455 (University of Missouri, 1988).

Each structure is given as a SMILES string. “And” between values parts separate entries of the source, which are not always exact repeats. Identical values can stand only once.

In general, Ki refers to a measure of affinity in units of concentration, obtained from inhibition or displacement.

The experiment deals with T1, Alpha-2B adrenergic receptor (Didelphis virginiana, UniProt O77715).
T1 sequence (O77715 whole entry): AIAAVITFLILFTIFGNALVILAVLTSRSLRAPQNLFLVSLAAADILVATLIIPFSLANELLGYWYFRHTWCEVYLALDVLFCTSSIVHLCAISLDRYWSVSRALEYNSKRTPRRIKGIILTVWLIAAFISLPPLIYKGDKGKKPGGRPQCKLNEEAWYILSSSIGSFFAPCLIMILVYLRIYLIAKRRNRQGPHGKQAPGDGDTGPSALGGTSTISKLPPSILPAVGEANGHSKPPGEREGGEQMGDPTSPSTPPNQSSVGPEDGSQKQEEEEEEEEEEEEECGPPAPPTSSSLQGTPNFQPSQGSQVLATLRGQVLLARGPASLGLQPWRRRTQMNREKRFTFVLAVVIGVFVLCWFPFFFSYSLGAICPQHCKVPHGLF
With `Clc1cccc(Cl)c1N=C1NCCN1` [2-(2,6-dichloroanilino)-2-imidazoline], the Ki came out at 14 nM.

In turn, `O=C(c1ccc(F)cc1)C1CCN(CCn2c(=O)[nH]c3ccccc3c2=O)CC1` [3-(2-{4-[(4-fluorophenyl)carbonyl]piperidin-1-yl}ethyl)-1,2,3,4-tetrahydroquinazoline-2,4-dione] displayed an inhibitory constant (Ki) of 143 nM. Compared with the last compound, the Ki is about 10-fold higher.

Turning to `CNCC(O)c1ccc(O)c(O)c1` (centres undefined) [EPINEPHRINE], the Ki came out at 31 nM.

As for `COc1cccc(OC)c1OCCNCC1Oc2ccccc2OC1c1ccccc1` (centres undefined) [NSC_185453], the Ki amounted to 0.27 nM.

For `NCC(O)c1ccc(O)c(O)c1` (stereo not drawn) [Noradrenaline,(+)], the affinity corresponds to a Ki of 122 nM.

The compound `Cc1ccc(N(CC2=NCCN2)c2cccc(O)c2)cc1` [SMR000059054] registered an inhibition constant (Ki) of 5.6 nM.

In turn, `Cc1cc(C(C)(C)C)c(O)c(C)c1CC1=NCCN1` [SMR000059324] returned an inhibition constant (Ki) of 10 nM.

The compound `Brc1c(NC2=NCCN2)ccc2nccnc12` [UK 14,304] registered a Ki of 22 nM.

Regarding `COc1cc2nc(N3CCN(C(=O)c4ccco4)CC3)nc(N)c2cc1OC` [[3H]-Minipress], the Ki was 7.4 nM and 7.6 nM.
